In the CheMixHub ionic liquid set:

Assay: xn = mol fraction of the nth substance listed

CCCC[n+]1ccn(C)c1.[Cl-] + O
Settings	electrical conductivity [S/m]	viscosity [mPa·s]
278.15 K, 100 kPa, x1 = 9.568e-05	–	1.532
278.15 K, 100 kPa, x1 = 0.000202	–	1.539
278.15 K, 100 kPa, x1 = 0.0003808	–	1.545
278.15 K, 100 kPa, x1 = 0.0005628	–	1.555
278.15 K, 100 kPa, x1 = 0.0007322	–	1.561
278.15 K, 100 kPa, x1 = 0.0009239	–	1.57
278.15 K, 100 kPa, x1 = 0.001099	–	1.576
278.15 K, 100 kPa, x1 = 0.001363	–	1.587
278.15 K, 100 kPa, x1 = 0.001909	–	1.608
283.15 K, 100 kPa, x1 = 9.568e-05	–	1.314
283.15 K, 100 kPa, x1 = 0.000202	–	1.318
283.15 K, 100 kPa, x1 = 0.0003808	–	1.325
283.15 K, 100 kPa, x1 = 0.0005628	–	1.332
283.15 K, 100 kPa, x1 = 0.0007322	–	1.339
283.15 K, 100 kPa, x1 = 0.0009239	–	1.348
283.15 K, 100 kPa, x1 = 0.001099	–	1.355
283.15 K, 100 kPa, x1 = 0.001363	–	1.365
283.15 K, 100 kPa, x1 = 0.001909	–	1.377
288.15 K, 100 kPa, x1 = 9.568e-05	–	1.146
288.15 K, 100 kPa, x1 = 0.000202	–	1.149
288.15 K, 100 kPa, x1 = 0.0003808	–	1.155
288.15 K, 100 kPa, x1 = 0.0005628	–	1.161
288.15 K, 100 kPa, x1 = 0.0007322	–	1.168
288.15 K, 100 kPa, x1 = 0.0009239	–	1.178
288.15 K, 100 kPa, x1 = 0.001099	–	1.18
288.15 K, 100 kPa, x1 = 0.001363	–	1.189
288.15 K, 100 kPa, x1 = 0.001909	–	1.198
293.15 K, 100 kPa, x1 = 0.0003808	–	1.017
293.15 K, 100 kPa, x1 = 0.0005628	–	1.021
293.15 K, 100 kPa, x1 = 0.0007322	–	1.027
293.15 K, 100 kPa, x1 = 0.0009239	–	1.033
293.15 K, 100 kPa, x1 = 0.001099	–	1.036
293.15 K, 100 kPa, x1 = 0.001363	–	1.044
293.15 K, 100 kPa, x1 = 0.001909	–	1.053
293.15 K, 101 kPa, x2 = 0.4982	–	240
293.15 K, 101 kPa, x2 = 0.9502	–	2.57
298.15 K, 100 kPa, x1 = 0.000202	–	0.9
298.15 K, 100 kPa, x1 = 0.0003808	–	0.904
298.15 K, 100 kPa, x1 = 0.0005628	–	0.908
298.15 K, 100 kPa, x1 = 0.0007322	–	0.913
298.15 K, 100 kPa, x1 = 0.0009239	–	0.918
298.15 K, 100 kPa, x1 = 0.001099	–	0.922
298.15 K, 100 kPa, x1 = 0.001363	–	0.928
298.15 K, 100 kPa, x1 = 0.001909	–	0.936
298.15 K, 101 kPa, x1 = 0.009814	3.03	–
298.15 K, 101 kPa, x2 = 0.8034	3.08	12.6
298.15 K, 101 kPa, x2 = 0.9259	6.29	–
298.15 K, 101 kPa, x2 = 0.9476	6.24	–
298.15 K, 101 kPa, x2 = 0.9647	5.76	–
298.15 K, 101 kPa, x2 = 0.9787	4.73	–
298.15 K, 101.3 kPa, x1 = 8.71e-06	0.00583	–
298.15 K, 101.3 kPa, x1 = 1.208e-05	0.00794	–
298.15 K, 101.3 kPa, x1 = 1.485e-05	0.00965	–
298.15 K, 101.3 kPa, x1 = 1.707e-05	0.01101	–
298.15 K, 101.3 kPa, x1 = 1.937e-05	0.01241	–
298.15 K, 101.3 kPa, x1 = 2.164e-05	0.0138	–
298.15 K, 101.3 kPa, x1 = 2.397e-05	0.0152	–
298.15 K, 101.3 kPa, x1 = 2.6e-05	0.0164	–
298.15 K, 101.3 kPa, x1 = 2.824e-05	0.0177	–
298.15 K, 101.3 kPa, x1 = 3.029e-05	0.019	–
298.15 K, 101.3 kPa, x1 = 0.0009038	–	0.911
298.15 K, 101.3 kPa, x1 = 0.000929	–	0.908
298.15 K, 101.3 kPa, x1 = 0.001008	–	0.919
298.15 K, 101.3 kPa, x1 = 0.001815	–	0.928
298.15 K, 101.3 kPa, x1 = 0.00182	–	0.935
298.15 K, 101.3 kPa, x1 = 0.001824	–	0.928
298.15 K, 101.3 kPa, x1 = 0.003602	–	0.971
303.15 K, 100 kPa, x1 = 9.568e-05	–	0.803
303.15 K, 100 kPa, x1 = 0.000202	–	0.806
303.15 K, 100 kPa, x1 = 0.0003808	–	0.81
303.15 K, 100 kPa, x1 = 0.0005628	–	0.813
303.15 K, 100 kPa, x1 = 0.0007322	–	0.817
303.15 K, 100 kPa, x1 = 0.0009239	–	0.82
303.15 K, 100 kPa, x1 = 0.001099	–	0.823
303.15 K, 100 kPa, x1 = 0.001363	–	0.828
303.15 K, 100 kPa, x1 = 0.001909	–	0.837
303.15 K, 101 kPa, x2 = 0.8999	–	3.82
308.15 K, 100 kPa, x1 = 9.568e-05	–	0.725
308.15 K, 100 kPa, x1 = 0.000202	–	0.727
308.15 K, 100 kPa, x1 = 0.0003808	–	0.73
308.15 K, 100 kPa, x1 = 0.0005628	–	0.733
308.15 K, 100 kPa, x1 = 0.0007322	–	0.737
308.15 K, 100 kPa, x1 = 0.0009239	–	0.74
308.15 K, 100 kPa, x1 = 0.001099	–	0.742
308.15 K, 100 kPa, x1 = 0.001363	–	0.746
308.15 K, 100 kPa, x1 = 0.001909	–	0.754
308.15 K, 101 kPa, x2 = 0.4982	–	92
308.15 K, 101.3 kPa, x1 = 0.0009038	–	0.737
308.15 K, 101.3 kPa, x1 = 0.00092	–	0.733
308.15 K, 101.3 kPa, x1 = 0.000929	–	0.733
308.15 K, 101.3 kPa, x1 = 0.001008	–	0.74
308.15 K, 101.3 kPa, x1 = 0.001815	–	0.748
308.15 K, 101.3 kPa, x1 = 0.00182	–	0.754
308.15 K, 101.3 kPa, x1 = 0.001822	–	0.751
308.15 K, 101.3 kPa, x1 = 0.001824	–	0.747
310.15 K, 101.3 kPa, x1 = 0.0009038	–	0.71
310.15 K, 101.3 kPa, x1 = 0.00092	–	0.705
310.15 K, 101.3 kPa, x1 = 0.000929	–	0.704
310.15 K, 101.3 kPa, x1 = 0.001008	–	0.712
310.15 K, 101.3 kPa, x1 = 0.001815	–	0.722
310.15 K, 101.3 kPa, x1 = 0.00182	–	0.728
310.15 K, 101.3 kPa, x1 = 0.001822	–	0.722
310.15 K, 101.3 kPa, x1 = 0.001824	–	0.717
313.15 K, 100 kPa, x1 = 9.568e-05	–	0.658
313.15 K, 100 kPa, x1 = 0.000202	–	0.66
313.15 K, 100 kPa, x1 = 0.0003808	–	0.663
313.15 K, 100 kPa, x1 = 0.0005628	–	0.665
313.15 K, 100 kPa, x1 = 0.0007322	–	0.668
313.15 K, 100 kPa, x1 = 0.0009239	–	0.671
313.15 K, 100 kPa, x1 = 0.001099	–	0.673
313.15 K, 100 kPa, x1 = 0.001363	–	0.677
313.15 K, 100 kPa, x1 = 0.001909	–	0.686
318.15 K, 101.3 kPa, x1 = 0.0009038	–	0.613
318.15 K, 101.3 kPa, x1 = 0.00092	–	0.608
318.15 K, 101.3 kPa, x1 = 0.000929	–	0.607
318.15 K, 101.3 kPa, x1 = 0.001008	–	0.615
318.15 K, 101.3 kPa, x1 = 0.001815	–	0.624
318.15 K, 101.3 kPa, x1 = 0.00182	–	0.625
318.15 K, 101.3 kPa, x1 = 0.001822	–	0.623
318.15 K, 101.3 kPa, x1 = 0.001824	–	0.618
